Experiments:
[1] = From the text: At 15 weeks postweaning, rats were subjected to surgery to implant a catheter into their jugular vein. The animals were anesthetized using isoflurane inhalation (5% induction, 1–3% maintenance). Before the incision was made, hair was shaved from the incision site and the site was sterilized with iodine and ethanol. A transverse incision was made anterior to the upper thorax. The jugular vein was located by blunt dissection. The vein was isolated and tied off. The vein was then nicked and a catheter (PE 50; Intramedic, Sparks, MD) with a 3.5 cm silastic tubing end (VWR, Mississauga, ON, Canada) was inserted into the vein. The catheter was secured using 3.0 silk sutures and a 16 gauge Angiocath (Becton Dickinson, Mississauga, ON, Canada) was used to guide the catheter subcutaneously to a site outside the body near the scapula. An incision was made at this site and the catheter was tucked beneath the skin at the incision site. The incision site was stapled to protect the catheter from the rats. The incision site on the chest was closed with 4.0 silk sutures and the rats were allowed to recover from the anesthetic under a heat lamp. Approximately 24 h after the surgery, the tail vein of the rats was cannulated with a 24 gauge Angiocath (Becton Dickinson). While the rats were restrained, the staple closing the incision site on the scapula was removed and the jugular vein catheter was connected to a longer polyethylene catheter. The rats were then placed in an infusion box that contained food, a chew toy, and bedding from the rat's cage. The tail vein catheter was then connected to an infusion line. Rats were able to move freely within the infusion box throughout the infusion.
Modified from the method of Rapoport, Igarashi, and Gao ([38]); 4.5 μmol/100 g body weight of ^2H-ALA (^2H14-ALA, purity >95% confirmed by GC-FID and GC-MS; Cayman Chemical, Ann Arbor, MI) was infused into the tail vein for 3 h. To prepare the infusate, a known amount of ^2H-ALA was dissolved in 5 mM HEPES buffer (pH 7.4) containing 50 mg/ml fatty acid-free BSA. The infusate was mixed by sonication at 37°C. An infusion pump (Harvard Apparatus PHD 2000; Holliston, MA) was used to infuse 3.78 ml of tracer solution at a constant rate of 0.021 ml/min for 3 h. Immediately before the infusion and every 30 min during the infusion 0.2 ml of blood was drawn from the jugular vein. The jugular vein catheter was flushed with heparinized saline (5% by volume) after every blood draw to prevent coagulation in the line. After 180 min of the infusion, 1 ml of blood was drawn from the jugular vein and the animals were euthanized with a lethal injection of T-61 into the tail vein. All blood samples were centrifuged for 10 min (PC-100 microcentrifuge; Diamed, ON, Canada) and the plasma was collected and stored at −80°C.
Plasma volume was determined using the method of Schreihofer, Hair, and Stepp as modified by Gao et al.([24], [39]). Briefly, a known amount of Evans Blue dye was injected into the tail veins of the rats. After 15 min, 1 ml of blood was drawn from the jugular vein, twice. The plasma was collected as described above, and 0.1 ml of plasma was diluted into 1 ml of saline. Absorbance at 604 nm was measured with a Nanodrop 1000 and by comparing the absorbance to a standard curve, the concentration of the dye was determined.
Fifty microliters of plasma were added to a test tube which contained known amounts of unesterified 17:0 standard and di-17:0 phosphatidylcholine standard. Lipids were extracted from the plasma using the method of Folch, Lees, and Sloane Stanley ([28]), as described above.
Thin layer chromatography (TLC) was used to separate esterified and unesterified lipids. The TLE was dried under N2 and reconstituted in 250 μl chloroform. TLC plates (TLC silica gel 60, EMD) that were washed in chloroform and methanol (2:1) were activated by heat at 100°C for 1 h.

[2] = tested on: epidermal growth factor receptor; assay: Brain gene expression (TLDA qPCR); assay type: in vivo, rat; conditions: 15 wk diet; control diet = 1
Description: (§1) RNA was extracted from the flash-frozen half brains of the 15 week postweaning rats. The brain was briefly thawed and dissected to isolate the brainstem, cerebellum, cortex, hippocampus, striatum, and the rest of the brain. RNA was extracted from the brain regions using Trizol reagent (Ambion; Life Technologies, Burlington, ON, Canada) according to the manufacturer's protocol. […] Chloroform was added to the Trizol reagent at a ratio of 1:5 (chloroform:Trizol reagent) and the solution was mixed and incubated at room temperature. The solution was then centrifuged at 12,000 g for 15 min at 4°C. […] The samples were then centrifuged at 12,000 g for 10 min at 4°C to precipitate the RNA pellet. […] The pellet was allowed to air dry, and was then dissolved in RNase-free water. A Nanodrop 1000 (NanoDrop Technologies Inc., Wilmington, DE) was used to determine the concentration and purity of each sample by measuring absorbance at 260 and 280 nm. Each sample was aliquoted to make 1 μg of RNA per 10 μl of sample and stored at -80°C. A high-capacity cDNA reverse transcription kit (Applied Biosystems, Burlington, ON, Canada) was used to reverse transcribe 1 μg of RNA according to the manufacturer's instructions. Newly synthesized cDNA was stored at -20°C until the following day when it was loaded onto TaqMan low density array (TLDA) plates. Quantitative real-time PCR was performed using TLDA (Applied Biosystems) on the 7900HT real-time PCR system (Applied Biosystems). cDNA (50 ng) was diluted with water to make a volume of 50 μl and mixed with 50 μl of TaqMan Universal PCR Master Mix (Applied Biosystems). The mixture was then loaded onto a customized preconfigured 384-well TLDA plate according to the manufacturer's protocol. TaqMan gene expression assays were used to assess 21 genes that were previously reported to be differentially expressed with n-3 deprivation. […] All genes were normalized to phosphoglycerate kinase 1. Similar results were found when normalizing to β-actin or 18S rRNA.

β-actin = assay: Brain gene expression (TLDA qPCR); assay type: in vivo, rat; conditions: 15 wk diet; control diet = 1
Description: as §1

α-synuclein = assay: Brain gene expression (TLDA qPCR); assay type: in vivo, rat; conditions: 15 wk diet; control diet = 1
Description: as §1

group 4 cPLA2 = assay: Brain gene expression (TLDA qPCR); assay type: in vivo, rat; conditions: 15 wk diet; control diet = 1
Description: as §1

| SMILES | Brainstem gene expression: EGFR [2] | Cerebellum gene expression: EGFR [2] | Cortex gene expression: EGFR [2] | Hippocampus gene expression: EGFR [2] | Rest of brain gene expression: EGFR [2] | Striatum gene expression: EGFR [2] | Brainstem gene expression: b-actin (β-actin) | Cerebellum gene expression: b actin (β-actin) | Cortex gene expression: b actin (β-actin) | Hippocampus gene expression: B-actin (β-actin) | Rest of brain gene expression: b actin (β-actin) | Striatum gene expression: b actin (β-actin) | Brainstem gene expression: SNCa (α-synuclein) | Cerebellum gene expression: SNCa (α-synuclein) | Cortex gene expression: SNCa (α-synuclein) | Hippocampus gene expression: SNCa (α-synuclein) | Rest of brain gene expression: SNCa (α-synuclein) | Striatum gene expression: SNCa (α-synuclein) | Brainstem gene expression: cPLA2 (group 4 cPLA2) | Cerebellum gene expression: cPLA2 (group 4 cPLA2) | further results |
| --- | --- | --- | --- | --- | --- | --- | --- | --- | --- | --- | --- | --- | --- | --- | --- | --- | --- | --- | --- | --- | --- |
| CC/C=C\C/C=C\C/C=C\CCCCCCCC(=O)O [ALA, α-linolenic acid] | 1.05 RQ | 1.26 RQ | 0.94 RQ | 1.10 RQ | 1.06 RQ | 1.00 RQ | 1.11 RQ | 1.10 RQ | 1.05 RQ | 1.13 RQ | 1.00 RQ | 1.04 RQ | 0.95 RQ | 0.96 RQ | 1.08 RQ | 1.10 RQ | 0.97 RQ | 1.05 RQ | 0.98 RQ | 1.17 RQ | Mean plasma [^2H-ALA]unesterified during infusion ([1]; 4.5 μmol/100 g ^2H-ALA i.v. over 3 h): 2.5 ± 0.5 nmol/mL; Smax,i (maximum first derivative) ([1]; 15 wk diet, 3 h ^2H-ALA infusion, n = 4): 0.339 ± 0.135 nmol/min; Daily Secretion Rate (daily DHA synthesis rate) ([1]; 15 wk diet, n = 4): 1452 ± 395 nmol/day; FDHA (turnover rate of esterified plasma DHA) ([1]; 15 wk diet, n = 4): 0.0002 ± 4e-05 min⁻¹; Jsyn (synthesis rate of DHA from ALA) ([1]; 15 wk diet, n = 4): 1.008 ± 0.274 nmol/min; k1,DHA (synthesis-secretion coefficient for DHA synthesis from ALA) ([1]; 15 wk diet, n = 4): 0.131 ± 0.04 mL/min; DHA synthesis rate relative to brain DHA uptake rate ([1]; ALA-fed rats, infusion synthesis vs ^14C-DHA uptake): approximately 3 fold; DHA synthesis rate from ALA (steady-state infusion) ([1]; at 15 weeks postweaning): 1.5 µmol/day; Cortex gene expression: cPLA2 (group 4 cPLA2): 0.93 RQ; Hippocampus gene expression: cPLA2 (group 4 cPLA2): 1.10 RQ; Rest of brain gene expression: cPLA2 (group 4 cPLA2): 0.85 RQ; Striatum gene expression: cPLA2 (group 4 cPLA2): 1.04 RQ |
| CC/C=C\C/C=C\C/C=C\C/C=C\C/C=C\C/C=C\CCC(=O)O [DHA, Docosahexaenoic acid] | 1.14 RQ | 0.96 RQ | 0.99 RQ | 1.04 RQ | 1.08 RQ | 0.82 RQ | 1.10 RQ | 0.98 RQ | 1.05 RQ | 1.12 RQ | 1.08 RQ | 0.92 RQ | 2.25 RQ | 0.84 RQ | 1.15 RQ | 1.19 RQ | 1.09 RQ | 0.97 RQ | 6.22 RQ | 0.98 RQ | Reduction of DHA synthesis by 2% dietary DHA ([1]; synthesis rate not quantifiable in DHA-fed rats): greater than 30 fold; Cortex gene expression: cPLA2 (group 4 cPLA2): 1.11 RQ; Hippocampus gene expression: cPLA2 (group 4 cPLA2): 0.98 RQ; Rest of brain gene expression: cPLA2 (group 4 cPLA2): 0.99 RQ; Striatum gene expression: cPLA2 (group 4 cPLA2): 0.92 RQ |

— PMC3927474, “Whole body synthesis rates of DHA from α-linolenic acid are greater than brain DHA accretion and uptake rates in adult rats” (Journal of Lipid Research, 2014)
